Experimental data taken from ChEMBL document CHEMBL5042477, “Potent Cyclic Peptide Inhibitors of FXIIa Discovered by mRNA Display with Genetic Code Reprogramming” (J Med Chem, 2021).
Activity calls are given as the source filed them. No cut-off for these calls is given here. Where a SMILES comes first, the peptide text is derived from it. Bridges are numbered along the chain shown (N, C = ends).

How the values were obtained:
[1] = target: Urokinase-type plasminogen activator (Homo sapiens, UniProt P00749); test: Inhibition of Urokinase-type plasminogen activator (unknown origin)
[2] = tested on: Plasma; test: Anticoagulant activity in pooled human plasma assessed as reduction in ellagic acid induced thrombin generation using Z-GGR-AMC as fluorogenic substrate by calibrated automated thrombogram analysis; type: functional, cell-free
[3] = target: T1, Coagulation factor XII (Homo sapiens, UniProt P00748); test: Inhibition of human factor 12a using H-D-Pro-Phe-Arg-p-nitroanilide as chromogenic substrate assessed as liberation of p-nitroaniline in presence of BSA measured every 5 mins for 60 min by multimode plate reader analysis
T1 sequence (P00748 whole entry): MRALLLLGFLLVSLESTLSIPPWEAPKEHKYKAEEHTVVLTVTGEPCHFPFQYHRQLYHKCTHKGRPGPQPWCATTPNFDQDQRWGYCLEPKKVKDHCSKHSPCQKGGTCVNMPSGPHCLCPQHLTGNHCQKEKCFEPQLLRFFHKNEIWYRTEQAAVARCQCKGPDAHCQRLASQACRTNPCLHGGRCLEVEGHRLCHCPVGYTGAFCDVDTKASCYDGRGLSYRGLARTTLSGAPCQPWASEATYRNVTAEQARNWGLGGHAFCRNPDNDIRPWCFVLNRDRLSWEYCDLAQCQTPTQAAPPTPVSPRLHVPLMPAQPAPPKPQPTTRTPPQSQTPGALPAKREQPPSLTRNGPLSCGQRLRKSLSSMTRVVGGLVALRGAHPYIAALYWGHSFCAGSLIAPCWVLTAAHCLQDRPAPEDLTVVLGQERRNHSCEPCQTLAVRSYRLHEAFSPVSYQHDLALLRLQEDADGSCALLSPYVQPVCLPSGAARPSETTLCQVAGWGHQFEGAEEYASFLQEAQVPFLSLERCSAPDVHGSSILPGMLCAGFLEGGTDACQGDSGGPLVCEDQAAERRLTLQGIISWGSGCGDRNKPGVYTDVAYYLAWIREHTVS

[4] = target: Plasminogen (Homo sapiens, UniProt P00747); test: Inhibition of plasmin (unknown origin)
[5] = target: T2, Coagulation factor XII (Homo sapiens) (UniProt P00748); test: Inhibition of human factor 12a activation in citrated pooled human plasma assessed as inhibition of bradykinin release incubated for 10 mins followed by kaolin addition and measured after 15 mins by ELISA; type: cell-free; settings: dose 1-200 µM, time 25.0 min
T2 sequence (whole entry): T1 sequence (P00748 whole entry)

[6] = target: Coagulation factor X (Homo sapiens, UniProt P00742); test: Inhibition of human factor 10a using methoxycarbonyl-D-Nle-Gly-Arg-pNA as substrate measured after 60 mins by microplate reader analysis
[7] = target: T1, Coagulation factor XII; test: Inhibition of human factor 12a using H-D-Pro-Phe-Arg-p-nitroanilide as chromogenic substrate assessed as liberation of p-nitroaniline measured every 5 mins for 60 min by multimode plate reader analysis
[8] = tested on: Plasma; test: Anticoagulant activity in FXII-deficient human plasma assessed as effect on total thrombin generation using Z-GGR-AMC as fluorogenic substrate at 8 uM by calibrated automated thrombogram analysis; type: functional, cell-free
[9] = tested on: Plasma; test: Anticoagulant activity in pooled human plasma assessed as prolongation of activated partial thromboplastin time at 12.5 uM incubated for 7 mins; type: functional, cell-free
[10] = target: Trypsin (Homo sapiens, UniProt P07477+P07478+P35030); test: Inhibition of trypsin (unknown origin); type: protein assay
[11] = target: T3, Coagulation factor VII (Homo sapiens, UniProt P08709); test: Inhibition of factor 7a (unknown origin)
T3 sequence (P08709 whole entry): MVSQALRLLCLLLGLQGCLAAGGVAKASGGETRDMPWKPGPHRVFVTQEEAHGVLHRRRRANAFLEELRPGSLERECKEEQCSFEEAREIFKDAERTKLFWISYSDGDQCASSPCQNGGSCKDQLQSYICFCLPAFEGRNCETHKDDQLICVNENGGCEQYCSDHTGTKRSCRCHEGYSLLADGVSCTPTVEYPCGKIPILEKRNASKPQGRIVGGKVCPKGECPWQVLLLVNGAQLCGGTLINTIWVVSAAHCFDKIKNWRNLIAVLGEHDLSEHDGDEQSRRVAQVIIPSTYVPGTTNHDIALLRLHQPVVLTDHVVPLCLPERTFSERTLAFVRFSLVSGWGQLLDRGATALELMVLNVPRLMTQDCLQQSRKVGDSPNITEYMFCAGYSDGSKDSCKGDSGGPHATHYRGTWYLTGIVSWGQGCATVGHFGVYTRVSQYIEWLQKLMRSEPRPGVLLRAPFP

[12] = Stability in pooled human plasma measured upto 24 hrs by UPLC-MS analysis; type: ADME, cell-free
[13] = target: Plasma kallikrein (Homo sapiens, UniProt P03952); test: Inhibition of plasma kallikrein (unknown origin); type: cell-free
[14] = target: T2, Coagulation factor XII (Homo sapiens); test: Inhibition of human factor 12a using H-D-Pro-Phe-Arg-p-nitroanilide as chromogenic substrate assessed as liberation of p-nitroaniline at […] measured every 5 mins for 60 min by multimode plate reader analysis
[15] = organism: Homo sapiens; test: Selectivity index, ratio of IC50 for inhibition of human factor 12a using H-D-Pro-Phe-Arg-p-nitroanilide as chromogenic substrate to IC50 for inhibition of human factor 10a using methoxycarbonyl-D-Nle-Gly-Arg-pNA as substrate
[16] = tested on: Plasma; test: Anticoagulant activity in pooled human plasma assessed as prolongation of prothrombin time at 12.5 uM incubated for 7 mins; type: functional, cell-free
[17] = target: T2, Coagulation factor XII (Homo sapiens); test: Inhibition of human factor 12a using H-D-Pro-Phe-Arg-p-nitroanilide as chromogenic substrate assessed as liberation of p-nitroaniline at 2 mM measured every 5 mins for 60 min by multimode plate reader analysis
[18] = tested on: Plasma; test: Anticoagulant activity in pooled human plasma assessed as prolongation of activated partial thromboplastin time at 1.25 uM incubated for 7 mins; type: functional, cell-free
[19] = tested on: Plasma; test: Anticoagulant activity in pooled human plasma assessed as reduction in ellagic acid induced thrombin generation using Z-GGR-AMC as fluorogenic substrate at 4 uM by calibrated automated thrombogram analysis; type: functional, cell-free

Chain of Plasma kallikrein (P03952 20-390 limits assumed): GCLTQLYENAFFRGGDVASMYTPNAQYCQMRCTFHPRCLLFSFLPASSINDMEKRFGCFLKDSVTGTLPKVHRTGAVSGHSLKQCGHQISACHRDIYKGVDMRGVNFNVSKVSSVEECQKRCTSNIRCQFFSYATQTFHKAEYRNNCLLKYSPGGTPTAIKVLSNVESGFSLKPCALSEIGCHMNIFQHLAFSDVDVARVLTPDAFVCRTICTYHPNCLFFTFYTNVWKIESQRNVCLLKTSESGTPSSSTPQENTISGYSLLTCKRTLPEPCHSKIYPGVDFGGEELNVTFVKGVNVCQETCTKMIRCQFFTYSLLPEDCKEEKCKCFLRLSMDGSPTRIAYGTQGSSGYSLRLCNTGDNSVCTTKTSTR
Chain of Plasma kallikrein (P03952 391-638 limits assumed): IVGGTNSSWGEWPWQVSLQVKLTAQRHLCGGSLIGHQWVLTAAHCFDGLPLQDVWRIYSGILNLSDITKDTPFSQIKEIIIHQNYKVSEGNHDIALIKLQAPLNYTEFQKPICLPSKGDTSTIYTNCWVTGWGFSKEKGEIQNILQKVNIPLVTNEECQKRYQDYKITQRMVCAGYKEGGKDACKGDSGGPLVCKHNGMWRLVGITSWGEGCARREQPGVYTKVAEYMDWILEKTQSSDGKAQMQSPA
Chain of Coagulation factor X (P00742 41-179 limits assumed): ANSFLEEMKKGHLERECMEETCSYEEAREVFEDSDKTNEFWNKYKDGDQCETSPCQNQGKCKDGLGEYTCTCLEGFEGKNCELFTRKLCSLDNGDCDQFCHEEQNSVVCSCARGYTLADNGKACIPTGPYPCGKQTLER
Chain of Coagulation factor X (P00742 235-488 limits assumed): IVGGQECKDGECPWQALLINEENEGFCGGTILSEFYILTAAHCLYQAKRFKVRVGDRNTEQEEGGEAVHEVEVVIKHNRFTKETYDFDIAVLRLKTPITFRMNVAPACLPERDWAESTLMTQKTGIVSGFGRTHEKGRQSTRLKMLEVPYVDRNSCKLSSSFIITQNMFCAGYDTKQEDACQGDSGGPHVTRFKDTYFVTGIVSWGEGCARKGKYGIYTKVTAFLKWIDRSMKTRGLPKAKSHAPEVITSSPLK
Chain of Plasminogen (P00747 97-580 limits assumed): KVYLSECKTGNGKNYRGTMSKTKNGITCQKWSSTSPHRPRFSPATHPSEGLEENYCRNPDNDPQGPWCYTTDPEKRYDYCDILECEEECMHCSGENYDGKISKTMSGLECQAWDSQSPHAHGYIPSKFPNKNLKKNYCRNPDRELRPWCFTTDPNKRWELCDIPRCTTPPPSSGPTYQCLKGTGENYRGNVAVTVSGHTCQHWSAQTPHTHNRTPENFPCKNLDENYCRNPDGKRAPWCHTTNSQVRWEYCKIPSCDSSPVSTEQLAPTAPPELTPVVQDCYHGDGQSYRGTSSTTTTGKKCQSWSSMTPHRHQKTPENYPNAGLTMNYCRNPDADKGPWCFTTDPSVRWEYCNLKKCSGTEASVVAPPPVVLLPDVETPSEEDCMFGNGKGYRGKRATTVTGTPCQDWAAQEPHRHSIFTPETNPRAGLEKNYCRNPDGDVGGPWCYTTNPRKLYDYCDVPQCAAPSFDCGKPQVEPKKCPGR
Chain of Plasminogen (P00747 581-810 limits assumed): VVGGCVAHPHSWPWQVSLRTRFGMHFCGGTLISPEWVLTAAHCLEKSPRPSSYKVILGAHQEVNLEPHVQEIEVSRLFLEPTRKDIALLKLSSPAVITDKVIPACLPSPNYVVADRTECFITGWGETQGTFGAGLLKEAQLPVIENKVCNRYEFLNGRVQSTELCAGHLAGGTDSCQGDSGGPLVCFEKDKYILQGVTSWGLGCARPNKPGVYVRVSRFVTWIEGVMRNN

| Molecule | IC50 [1] [µM] | EC50 [2] [µM] | IC50 [3] [µM] | IC50 [4] [µM] | IC50 [6] [µM] | IC50 [7] [µM] | IC50 [10] [µM] | IC50 [11] [µM] | IC50 [13] [µM] | Ratio IC50 [15] | Activity [8] | Activity [9] | Activity [16] | other results |
| --- | --- | --- | --- | --- | --- | --- | --- | --- | --- | --- | --- | --- | --- | --- |
| CC(C)C[C@@H]1NC(=O)[C@H](CCC(N)=O)NC(=O)[C@H](CCCNC(=N)N)NC(=O)[C@@H]2CSCCC(=O)N3CN(CN(C3)C(=O)CCSC[C@H](NC(=O)[C@@H](N)CCCNC(=N)N)C(=O)N[C@@H](Cc3ccccc3)C(=O)N[C@@H](CCCNC(=N)N)C(=O)N[C@@H](CC(C)C)C(=O)N3CCC[C@H]3C(=O)N2)C(=O)CCSC[C@@H](C(=O)N[C@@H](CCCNC(=N)N)C(=O)O)NC(=O)[C@H](CCCNC(=N)N)NC1=O |  |  | 0.173 |  |  | 0.142 |  |  |  |  |  |  |  |  |
| CC(C)C[C@@H]1NC(=O)[C@H](Cc2ccc(O)cc2)NC(=O)CSC[C@@H](C(N)=O)NC(=O)CNC(=O)CNC(=O)[C@H](CCCNC(=N)N)NC(=O)[C@H](CC(=O)O)NC(=O)[C@H](CCCCN)NC(=O)[C@@H]2CCCN2C(=O)[C@H](CCCNC(=N)N)NC(=O)[C@H](Cc2ccccc2)NC(=O)[C@@H](CCCNC(=N)N)NC1=O |  |  |  |  |  |  |  |  |  |  |  |  |  | inhibition [14]: inactive |
| CC[C@H](C)[C@@H]1NC(=O)[C@H](Cc2c[nH]cn2)NC(=O)[C@H](CCCCN)NC(=O)[C@H](Cc2ccccc2)NC(=O)[C@H](CCCNC(=N)N)NC(=O)[C@H](CC(C)C)NC(=O)[C@H](Cc2ccc(O)cc2)NC(=O)CSC[C@@H](C(N)=O)NC(=O)CNC(=O)CNC(=O)[C@H](CC(C)C)NC(=O)[C@H](CO)NC1=O ({CH2CO}-YLRFKHISLGGC-NH2; thioether N-12) |  | 3.2 | 0.311 |  | 17 | 0.234 |  |  |  | 100 | inactive | Active | Active |  |
| Ac-YLRFR-NH2 |  |  |  |  |  |  |  |  |  |  |  |  |  | inhibition [17]: inactive |
| CC[C@H](C)[C@@H]1NC(=O)[C@H](CC(C)C)NC(=O)[C@H](Cc2ccc(O)cc2)NC(=O)CSC[C@@H](C(=O)N[C@H](C(=O)N[C@@H](CO)C(=O)N[C@@H](CCCNC(=N)N)C(=O)N[C@@H](CCCNC(=N)N)C(=O)N[C@@H](C)C(=O)N[C@@H](Cc2ccccc2)C(=O)N[C@@H](Cc2ccccc2)C(=O)N[C@H](C(=O)N[C@@H](CC(=O)O)C(=O)N[C@@H](CCC(N)=O)C(=O)N[C@@H](CO)C(N)=O)[C@@H](C)O)C(C)C)NC1=O ({CH2CO}-YLICVSRRAFFTDQS-NH2; thioether N-4) |  |  |  |  | > 100 | > 100 |  |  |  |  |  |  |  |  |
| CC(C)C[C@@H]1NC(=O)[C@H](Cc2ccc(O)cc2)NC(=O)CSC[C@@H](C(N)=O)NC(=O)CNC(=O)CNC(=O)[C@H](CCCNC(=N)N)NC(=O)[C@H](CC(=O)O)NC(=O)[C@H](CCCCN)NC(=O)[C@@H]2CCCN2C(=O)[C@H](CCCNC(=N)N)NC(=O)[C@H](Cc2ccccc2)NC(=O)[C@H](CCCNC(=N)N)NC1=O | > 100 | 0.7 | 0.061 | > 100 | 59 | 0.062 | > 31 | > 100 | > 100 | 100 | inactive | Active | Active | inhibition [5]: Dose-Dependent Effect; Activity [18]: Active; Stability [12]: Stable; Activity [19]: Active |

More lines, main results first:

| IC50 [1] [µM] | EC50 [2] [µM] | IC50 [3] [µM] | IC50 [4] [µM] | IC50 [6] [µM] | IC50 [7] [µM] | IC50 [10] [µM] | IC50 [11] [µM] | IC50 [13] [µM] | Ratio IC50 [15] | Molecule | Activity [8] | Activity [9] | Activity [16] | other results |
| --- | --- | --- | --- | --- | --- | --- | --- | --- | --- | --- | --- | --- | --- | --- |
| > 100 | 2.8 | 0.611 | > 100 | > 100 | 0.331 | 12 | > 100 | > 100 |  | CC(C)C[C@@H]1NC(=O)[C@H](Cc2ccc(O)cc2)NC(=O)CSC[C@@H](C(N)=O)NC(=O)CNC(=O)CNC(=O)[C@H](CCC(N)=O)NC(=O)[C@H](CC(N)=O)NC(=O)[C@H]([C@@H](C)O)NC(=O)[C@@H]2CCCN2C(=O)[C@H](CCCCN)NC(=O)[C@H](CC(C)C)NC(=O)[C@H](CCCNC(=N)N)NC1=O ({CH2CO}-YLRLKPTNQGGC-NH2; thioether N-12) | inactive | Active |  | inhibition [5]: Dose-Dependent Effect; Stability [12]: Stable |
|  |  | 0.673 |  | 2.2 | 0.372 |  |  |  |  | CC(C)C[C@H](NC(=O)[C@H](C)NC(=O)[C@H](CO)NC(=O)[C@H](CCC(=O)O)NC(=O)[C@H](Cc1ccc(O)cc1)NC(=O)[C@H](CCCNC(=N)N)NC(=O)[C@@H]1CSCC(=O)N[C@@H](Cc2ccc(O)cc2)C(=O)N[C@@H](CC(C)C)C(=O)N[C@@H](CCCNC(=N)N)C(=O)N[C@@H](Cc2ccccc2)C(=O)N[C@@H]([C@@H](C)O)C(=O)N[C@@H](CC(C)C)C(=O)N1)C(=O)N[C@@H](CO)C(N)=O ({CH2CO}-YLRFTLCRYESALS-NH2; thioether N-7) |  |  |  |  |
|  |  |  |  | 41 | 0.18 |  |  |  |  | CC[C@H](C)[C@@H]1NC(=O)[C@H](C)NC(=O)[C@H](CCCCN)NC(=O)[C@H](Cc2ccccc2)NC(=O)[C@H](CCCNC(=N)N)NC(=O)[C@H](CC(C)C)NC(=O)[C@H](Cc2ccc(O)cc2)NC(=O)CSC[C@@H](C(N)=O)NC(=O)CNC(=O)CNC(=O)[C@H](CC(C)C)NC(=O)[C@H](CO)NC1=O ({CH2CO}-YLRFKAISLGGC-NH2; thioether N-12) |  |  |  |  |
| > 100 | 1.4 | 0.157 | 61 | 35 | 0.097 | 61 | > 100 | 43 | 100 | CC(C)C[C@@H]1NC(=O)[C@H](Cc2ccc(O)cc2)NC(=O)CSC[C@@H](C(=O)N[C@@H](CCCNC(=N)N)C(=O)N[C@@H](CCCNC(=N)N)C(=O)N[C@@H](C)C(=O)N2CCC[C@H]2C(=O)N[C@@H](CC(N)=O)C(=O)N[C@@H](CO)C(N)=O)NC(=O)[C@H](CC(C)C)NC(=O)[C@H]([C@@H](C)O)NC(=O)[C@H](Cc2ccccc2)NC(=O)[C@H](CCCNC(=N)N)NC1=O ({CH2CO}-YLRFTLCRRAPNS-NH2; thioether N-7) |  | Active | Active |  |
